According to patent publication US12404265B2, “Substituted pyridine derivatives as SARM1 inhibitors” (Nura Bio, Inc., priority 2020, dated 2025):

Target: T1, human SARM1(50-724) (Homo sapiens, UniProt Q6SZW1)
T1 construct: 40 nM human SARM1(50-724)
T1 sequence (Q6SZW1 50-724): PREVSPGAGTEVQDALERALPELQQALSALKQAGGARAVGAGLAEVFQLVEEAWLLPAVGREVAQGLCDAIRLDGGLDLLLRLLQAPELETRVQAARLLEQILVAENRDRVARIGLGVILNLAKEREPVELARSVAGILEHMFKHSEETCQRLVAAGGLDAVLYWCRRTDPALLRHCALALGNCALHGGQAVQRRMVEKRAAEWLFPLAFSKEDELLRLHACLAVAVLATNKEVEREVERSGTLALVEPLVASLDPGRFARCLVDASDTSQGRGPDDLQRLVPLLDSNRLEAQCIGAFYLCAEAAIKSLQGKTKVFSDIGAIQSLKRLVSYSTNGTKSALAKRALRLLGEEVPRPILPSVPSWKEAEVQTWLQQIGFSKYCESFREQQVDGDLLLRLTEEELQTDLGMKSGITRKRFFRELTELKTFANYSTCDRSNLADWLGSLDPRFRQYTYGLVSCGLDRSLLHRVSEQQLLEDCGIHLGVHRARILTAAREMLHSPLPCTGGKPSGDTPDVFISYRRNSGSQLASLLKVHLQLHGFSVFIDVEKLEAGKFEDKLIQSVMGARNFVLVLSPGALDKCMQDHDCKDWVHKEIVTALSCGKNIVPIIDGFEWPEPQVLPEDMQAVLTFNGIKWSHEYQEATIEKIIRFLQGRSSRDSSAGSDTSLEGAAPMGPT
Test: SARM1 NADase biochemical assay (HPLC of NAD and NAM)
Conditions: 40 nM human SARM1(50-724), 0.3 mM NMN, 20 μM NAD, 60 minutes room temperature; dose-response from 100 μM, 1:3 dilution
Experimental: Each reaction was run at a volume of 20 μL containing 50 μM compound (dissolved in DMSO; final concentration of DMSO is 1% v/v), 40 nM human SARM1(50-724), 0.3 mM NMN, 20 μM NAD, 1 mM TCEP, 25 mM HEPES pH 7.4, 10 mM KCl and 10 mM MgCl2. The reaction was incubated at room temperature for 60 minutes and quenched with 20 μL of 0.4% formic acid. The samples were run on Agilent HPLC 1260 Infinity II with Synergi 2.5 μM Fusion-RP 100 Å (100×3.0 mm) LC column from Phenomenex. Total run time for each sample was 4 minutes. The run was isocratic with 1.5% methanol in 40 mM ammonium acetate pH 6.0. Samples were run at a flow rate of 0.8 mL/min at 55° C. Peak areas of NAD and NAM were determined using OpenLAB CDS (Chem Station edition) software. For dose-response, the compound was diluted serially 1:3 in DMSO and added to the reaction starting at a final compound concentration of 100 μM in 1% DMSO.

Q: How did the IC50 turn out when `Cc1c(-c2ccncc2)n[nH]c1NC(=O)CCc1ccc(F)c(F)c1` [Example 44, 3-(3,4-Difluorophenyl)-N-(4-methyl-3-(pyridin-4-yl)-1H-pyrazol-5-yl)propanamide] was run?
A: The IC50 was under 1000 nM.

Q: How did the IC50 turn out when `Cc1c(-c2ccncc2)n[nH]c1NC(=O)CCc1ccc(F)cc1F` [Example 45, 3-(2,4-Difluorophenyl)-N-(4-methyl-3-(pyridin-4-yl)-1H-pyrazol-5-yl)propanamide] was run?
A: The IC50 was under 1000 nM.

Q: For `Cc1c(-c2ccncc2)n[nH]c1NC(=O)CCc1ccc(I)cc1` [Example 46, 3-(4-Iodophenyl)-N-(4-methyl-3-(pyridin-4-yl)-1H-pyrazol-5-yl)propanamide], which IC50 is on record?
A: The IC50 was under 1000 nM.

Q: `Cc1c(-c2ccncc2)n[nH]c1NC(=O)CCc1cc(Cl)c(Cl)c(Cl)c1` [Example 47, N-(4-Methyl-3-(pyridin-4-yl)-1H-pyrazol-5-yl)-3-(3,4,5-trichlorophenyl)propanamide] was tested. Which IC50 did it give?
A: Its IC50 is under 1000 nM.

Q: `Cc1c(-c2ccncc2)n[nH]c1NC(=O)CCc1cc(F)c(Cl)c(F)c1` [Example 48, 3-(4-Chloro-3,5-difluorophenyl)-N-(4-methyl-3-(pyridin-4-yl)-1H-pyrazol-5-yl)propanamide] was tested. Which IC50 did it give?
A: The IC50 was under 1000 nM.

Q: How did the IC50 turn out when `Cc1c(-c2ccncc2)n[nH]c1NC(=O)CCc1ccc(Cl)c(F)c1F` [Example 49, 3-(4-Chloro-2,3-difluorophenyl)-N-(4-methyl-3-(pyridin-4-yl)-1H-pyrazol-5-yl)propanamide] was run?
A: The IC50 was under 1000 nM.

Q: `Cc1c(-c2ccncc2)n[nH]c1NC(=O)CCc1cc(F)c(F)c(F)c1` [Example 50, N-(4-Methyl-3-(pyridin-4-yl)-1H-pyrazol-5-yl)-3-(3,4,5-trifluorophenyl)propanamide] was tested. Which IC50 did it give?
A: Its IC50 is under 1000 nM.

Q: `Cc1c(-c2ccncc2)n[nH]c1NC(=O)CCc1ccc(F)c(F)c1F` [Example 51, N-(4-Methyl-3-(pyridin-4-yl)-1H-pyrazol-5-yl)-3-(2,3,4-trifluorophenyl)propanamide] was tested. Which IC50 did it give?
A: Its IC50 is under 1000 nM.

Q: With `Cc1c(-c2ccncc2)n[nH]c1NC(=O)CCc1cc(F)c(F)cc1F` [Example 52, N-(4-Methyl-3-(pyridin-4-yl)-1H-pyrazol-5-yl)-3-(2,4,5-trifluorophenyl)propanamide] as the compound, how does the IC50 read?
A: Its IC50 is under 1000 nM.

Q: Which IC50 does the source give for `Cc1c(-c2ccncc2)n[nH]c1NC(=O)CCc1ccc(C#N)c(F)c1` [Example 53, 3-(4-Cyano-3-fluorophenyl)-N-(4-methyl-3-(pyridin-4-yl)-1H-pyrazol-5-yl)propanamide] here?
A: The IC50 was under 1000 nM.

Q: `Cc1c(-c2ccncc2)n[nH]c1NC(=O)CCc1ccc(OC(F)(F)F)cc1` [Example 54, N-(4-Methyl-3-(pyridin-4-yl)-1H-pyrazol-5-yl)-3-(4-(trifluoromethoxy)phenyl)propanamide] was tested. Which IC50 did it give?
A: Its IC50 is under 1000 nM.

Q: For `Cc1c(-c2ccncc2)n[nH]c1NC(=O)CCc1ccc(OC(F)F)cc1` [Example 55, 3-(4-(Difluoromethoxy)phenyl)-N-(4-methyl-3-(pyridin-4-yl)-1H-pyrazol-5-yl)propanamide], which IC50 is on record?
A: Its IC50 is under 1000 nM.

Q: For `Cc1c(-c2ccncc2)n[nH]c1NC(=O)CCc1ccc(CF)cc1` [Example 56, 3-(4-(Fluoromethyl)phenyl)-N-(4-methyl-3-(pyridin-4-yl)-1H-pyrazol-5-yl)propanamide], which IC50 is on record?
A: Its IC50 is under 1000 nM.

Q: `Cc1c(-c2ccncc2)n[nH]c1NC(=O)CCc1ccc(C(F)F)cc1` [Example 57, 3-(4-(Difluoromethyl)phenyl)-N-(4-methyl-3-(pyridin-4-yl)-1H-pyrazol-5-yl)propanamide] was tested. Which IC50 did it give?
A: Its IC50 is under 1000 nM.

Q: With `Cc1c(-c2ccncc2)n[nH]c1NC(=O)CCc1c(F)c(F)c(F)c(F)c1F` [Example 58, N-(4-Methyl-3-(pyridin-4-yl)-1H-pyrazol-5-yl)-3-(perfluorophenyl)propanamide] as the compound, how does the IC50 read?
A: The IC50 was under 1000 nM.

Q: For `Cc1c(-c2ccncc2)n[nH]c1NC(=O)CCc1ccc(F)nc1` [Example 59, 3-(6-Fluoropyridin-3-yl)-N-(4-methyl-3-(pyridin-4-yl)-1H-pyrazol-5-yl)propanamide], which IC50 is on record?
A: Its IC50 is under 1000 nM.

Q: `Cc1c(-c2ccncc2)n[nH]c1NC(=O)CCc1cnc(F)nc1` [Example 60, 3-(2-Fluoropyrimidin-5-yl)-N-(4-methyl-3-(pyridin-4-yl)-1H-pyrazol-5-yl)propanamide] was tested. Which IC50 did it give?
A: Its IC50 is under 1000 nM.

Q: For `Cc1c(-c2ccncc2)n[nH]c1NC(=O)CCc1cnc(Cl)nc1` [Example 61, 3-(2-Chloropyrimidin-5-yl)-N-(4-methyl-3-(pyridin-4-yl)-1H-pyrazol-5-yl)propanamide], which IC50 is on record?
A: The IC50 was under 1000 nM.

Q: With `Cc1c(-c2ccncc2)n[nH]c1NC(=O)COc1ccc(Cl)cc1` [Example 62, 2-(4-Chlorophenoxy)-N-(4-methyl-3-(pyridin-4-yl)-1H-pyrazol-5-yl)acetamide] as the compound, how does the IC50 read?
A: The IC50 was under 1000 nM.

Q: With `Cc1c(-c2ccncc2)n[nH]c1NC(=O)CSc1ccc(Cl)cc1` [Example 63, 2-((4-Chlorophenyl)thio)-N-(4-methyl-3-(pyridin-4-yl)-1H-pyrazol-5-yl)acetamide] as the compound, how does the IC50 read?
A: The IC50 was under 1000 nM.

Q: How did the IC50 turn out when `Cc1c(-c2ccncc2)n[nH]c1NC(=O)CCc1ccc(Cl)c(F)c1` [Example 64, 3-(4-Chloro-3-fluorophenyl)-N-(4-methyl-3-(pyridin-4-yl)-1H-pyrazol-5-yl)propanamide] was run?
A: The IC50 was under 1000 nM.

Q: Which IC50 does the source give for `Cc1c(-c2ccncc2)n[nH]c1NC(=O)CCc1cc(F)c(C#N)c(F)c1` [Example 65, 3-(4-Cyano-3,5-difluorophenyl)-N-(4-methyl-3-(pyridin-4-yl)-1H-pyrazol-5-yl)propanamide] here?
A: The IC50 was under 1000 nM.

Q: `Cc1c(-c2ccncc2)n[nH]c1NC(=O)CC1CCCc2ccccc21` (stereo not shown) [Example 66, N-[4-Methyl-3-(pyridin-4-yl)-1H-pyrazol-5-yl]-2-(1,2,3,4-tetrahydronaphthalen-1-yl)acetamide] was tested. Which IC50 did it give?
A: Its IC50 is 1000 to 10000 nM.

Q: How did the IC50 turn out when `Cc1c(-c2ccncc2)n[nH]c1NC(=O)CC1CCc2cc(Cl)ccc21` (stereo not shown) [Example 67, 2-(5-Chloro-2,3-dihydro-1H-inden-1-yl)-N-[4-methyl-3-(pyridin-4-yl)-1H-pyrazol-5-yl]acetamide] was run?
A: Its IC50 is under 1000 nM.

Q: Which IC50 does the source give for `Cc1c(-c2ccncc2)n[nH]c1NC(=O)CC1CCCc2cc(Cl)ccc21` (stereo not shown) [Example 68, 2-(6-Chloro-1,2,3,4-tetrahydronaphthalen-1-yl)-N-[4-methyl-3-(pyridin-4-yl)-1H-pyrazol-5-yl]acetamide] here?
A: The IC50 was 1000 to 10000 nM.

Q: `Cc1c(-c2ccncc2)n[nH]c1NC(=O)/C(F)=C(\F)c1ccc(Cl)cc1` [Example 69, (E)-3-(4-chlorophenyl)-2,3-difluoro-N-(4-methyl-3-(pyridin-4-yl)-1H-pyrazol-5-yl)acrylamide] was tested. Which IC50 did it give?
A: The IC50 was 1000 to 10000 nM.

Q: With `Cc1c(-c2ccncc2)n[nH]c1NC(=O)C#Cc1ccc(Cl)cc1` [Example 72, 3-(4-Chlorophenyl)-N-(4-methyl-3-(pyridin-4-yl)-1H-pyrazol-5-yl)propiolamide] as the compound, how does the IC50 read?
A: Its IC50 is 1000 to 10000 nM.

Q: Which IC50 does the source give for `Cc1c(-c2ccncc2)n[nH]c1NC(=O)CCc1cc(Cl)cs1` [Example 73] here?
A: The IC50 was under 1000 nM.

Q: `Cc1c(-c2ccncc2)n[nH]c1NC(=O)CCc1ccc(Cl)s1` [Example 74] was tested. Which IC50 did it give?
A: Its IC50 is under 1000 nM.

Q: Which IC50 does the source give for `Cc1c(-c2ccncc2)n[nH]c1NC(=O)CCc1cnc(Cl)s1` [Example 75, 3-(2-Chlorothiazol-5-yl)-N-(4-methyl-3-(pyridin-4-yl)-1H-pyrazol-5-yl)propanamide] here?
A: Its IC50 is under 1000 nM.

Q: `Cc1c(-c2ccncc2)n[nH]c1NC(=O)CCc1ncc(Cl)s1` [Example 76] was tested. Which IC50 did it give?
A: Its IC50 is 1000 to 10000 nM.

Q: How did the IC50 turn out when `Cc1c(-c2ccncc2)n[nH]c1NC(=O)CCn1cc(Cl)cn1` [Example 77, 3-(4-Chloro-1H-pyrazol-1-yl)-N-(4-methyl-3-(pyridin-4-yl)-1H-pyrazol-5-yl)propenamide] was run?
A: The IC50 was 1000 to 10000 nM.

Q: How did the IC50 turn out when `Cc1c(-c2ccncc2)n[nH]c1NC(=O)CCc1cc(Cl)no1` [Example 78, 3-(3-Chloroisoxazol-5-yl)-N-(4-methyl-3-(pyridin-4-yl)-1H-pyrazol-5-yl)propanamide] was run?
A: The IC50 was under 1000 nM.

Q: For `Cc1c(-c2ccncc2)n[nH]c1NC(=O)CNc1ccc(Cl)cc1` [Example 79, 2-((4-Chlorophenyl)amino)-N-(4-methyl-3-(pyridin-4-yl)-1H-pyrazol-5-yl)acetamide], which IC50 is on record?
A: The IC50 was under 1000 nM.

Q: How did the IC50 turn out when `Cc1c(-c2ccncc2)n[nH]c1NC(=O)C(F)(F)Cc1ccc(Cl)cc1` [Example 80, 3-(4-Chlorophenyl)-2,2-difluoro-N-(4-methyl-3-(pyridin-4-yl)-1H-pyrazol-5-yl)propanamide] was run?
A: The IC50 was 1000 to 10000 nM.

Q: `Cc1c(NC(=O)CSc2ccc(Cl)cc2)cnn1-c1ccncc1` [Example 81, 2-((4-Chlorophenyl)thio)-N-(5-methyl-1-(pyridin-4-yl)-1H-pyrazol-4-yl)acetamide] was tested. Which IC50 did it give?
A: The IC50 was under 1000 nM.

Q: `Cc1c(NC(=O)CCc2ccc(Cl)nc2)cnn1-c1ccncc1` [Example 82] was tested. Which IC50 did it give?
A: The IC50 was under 1000 nM.
